# Reference: patent US7531553B2, “Heterocyclic compounds and methods of use” (Amgen Inc., priority 2003, dated 2009)
# Test system: Human Umbilical Vein Endothelial cells
# Assay: HUVEC proliferation assay (VEGF-stimulated)
# Assay type: cell-based
# Conditions: VEGF 50 ng/mL final, 72 h incubation, CyQuant dye, read-out: inhibited VEGF-stimulated HUVEC proliferation at a level (IC50)
# Protocol: Human Umbilical Vein Endothelial cells are purchased from Clonetics, Inc., as cryopreserved cells harvested from a pool of donors. These cells, at passage 1, are thawed and expanded in EBM-2 complete medium, until passage 2 or 3. The cells are trypsinized, washed in DMEM+10% FBS+antibiotics, and spun at 1000 rpm for 10 min. Prior to centrifugation of the cells, a small amount is collected for a cell count. After centrifugation, the medium is discarded, and the cells are resuspended in the appropriate volume of DMEM+10% FBS+antibiotics to achieve a concentration of 3×10^5 cells/mL. Another cell count is performed to confirm the cell concentration. The cells are diluted to 3×10^4 cells/mL in DMEM+10% FBS+antibiotics, and 100 μL of cells are added to a 96-well plate. The cells are incubated at 37° C. for 22 h.
# Prior to the completion of the incubation period, compound dilutions are prepared. Five-point, five-fold serial dilutions are prepared in DMSO, at concentrations 400-fold greater than the final concentrations desired. 2.5 μL of each compound dilution are diluted further in a total of 1 mL DMEM+10% FBS+antibiotics (400× dilution). Medium containing 0.25% DMSO is also prepared for the 0 μM compound sample. After 22-h, the medium is removed from the cells, and 100 μL of each compound dilution is added. The cells are incubated at 37° C. for 2-3 h.
# During the compound pre-incubation period, the growth factors are diluted to the appropriate concentrations. Solutions of DMEM+10% FBS+antibiotics, containing either VEGF or bFGF at the following concentrations: 50, 10, 2, 0.4, 0.08, and 0 ng/mL are prepared. For the compound-treated cells, solutions of VEGF at 550 ng/mL or bFGF at 220 ng/mL for 50 ng/mL or 20 ng/mL final concentrations, respectively, are prepared since 10 μL of each will be added to the cells (110 μL final volume). At the appropriate time after adding the compounds, the growth factors are added. VEGF is added to one set of plates, while bFGF is added to another set of plates. For the growth factor control curves, the media on wells B4-G6 of plates 1 and 2 are replaced with media containing VEGF or bFGF at the varying concentrations (50-0 ng/mL). The cells are incubated at 37° C. for an additional 72 h.
# At the completion of the 72 h incubation period, the medium is removed, and the cells are washed twice with PBS. After the second wash with PBS, the plates are tapped gently to remove excess PBS, and the cells are placed at −70° C. for at least 30 min. […] Raw data are collected and analyzed using a 4-parameter fit equation in XLFit. IC50 values are then determined.
row,SMILES,IC50
1,"CN1CCC(COc2cc(Nc3nc4cc(Oc5ccnc6[nH]ccc56)ccc4o3)ccc2Cl)CC1 [Example 265, [4-Chloro-3-(1-methyl-piperidin-4-ylmethoxy)-phenyl]-[5-(1H-pyrrolo[2,3-b]pyridin-4-yloxy)-benzoxazol-2-yl]-amine]",< 100 nM
2,"CN1CCC[C@@H]1COc1cc(Nc2nc3cc(Oc4ccnc5ccccc45)ccc3[nH]2)ccc1C(F)(F)F [Example 29, [3-(1-Methyl-pyrrolidin-2-ylmethoxy)-4-trifluoromethyl-phenyl]-[5-(quinolin-4-yloxy)-1H-benzimidazol-2-yl]-amine]",< 100 nM
3,"CNC(=O)c1cc(Oc2ccc3oc(Nc4ccc(Cl)c(OCC5CCN(C)CC5)c4)nc3c2)ccn1 [Example 242, 4-{2-[4-Chloro-3-(1-methylpiperidin-4-ylmethoxy)-phenylamino]-benzoxazol-5-yloxy}-pyridine-2-carboxylic acid methylamide]",< 100 nM
4,"CNC(=O)c1cc(Oc2cc(F)c3oc(Nc4ccc(Cl)c(OC[C@@H]5CCCN5C)c4)nc3c2)ccn1 [Example 49, 4-((2-((4-Chloro-3-(((2S)-1-methyl-2-pyrrolidinyl)methoxy)phenyl)amino)-7-fluoro-1,3-benzoxazol-5-yl)oxy)-N-methyl-2-pyridinecarboxamide]",< 100 nM
5,"CNC(=O)c1cc(Oc2ccc3c(c2)nc(Nc2ccc(Cl)c(CN4CCN(C)CC4)c2)n3C)ccn1 [Example 17, 4-{2-[4-Chloro-3-(4-methyl-piperazin-1-ylmethyl)-phenylamino]-1-methyl-1H-benzimidazol-5-yloxy}-pyridine-2-carboxylic acid methylamide]",< 100 nM
6,"CNC(=O)c1cc(Oc2ccc3oc(Nc4ccc(Cl)c(OCCN(C)C)c4)nc3c2)ccn1 [Example 249, 4-{2-[4-Chloro-3-(2-dimethylamino-ethoxy)-phenylamino]-benzoxazol-5-yloxy}-pyridine-2-carboxylic acid methylamide]",< 100 nM
7,"CNC(=O)c1cc(Oc2ccc3[nH]c(Nc4ccc(C(F)(F)C(F)(F)F)c(OC[C@H]5CCCN5C)c4)nc3c2)ccn1 [Example 6, R-4-{2-[3-(1-Methyl-pyrrolidin-2-ylmethoxy)-4-pentafluoroethyl-phenylamino]-1H-benzimidazol-5-yloxy}-pyridine-2-carboxylic acid methylamide]",< 100 nM
8,"CNc1cc(Oc2ccc3oc(Nc4ccc(Cl)c(OC[C@@H]5CCCN5C)c4)nc3c2)ccn1 [Example 239, [4-Chloro-3-((2S)-1-methylpyrrolidin-2-ylmethoxy)-phenyl]-[5-(2-methylamino-pyridin-4-yloxy)-benzoxazol-2-yl]-amine]",< 100 nM
9,"COc1cc2ncnc(Oc3ccc4[nH]c(Nc5ccc(Cl)cc5)nc4c3)c2cc1OC [Example 237, (4-Chlorophenyl)-[5-(6,7-dimethoxyquinazolin-4-yloxy)-1H-benzimidazol-2-yl]-amine]",< 100 nM
10,CNC(=O)c1cc(Oc2ccc3[nH]c(Nc4ccc(C(F)(F)F)c(OCCN(C)C)c4)nc3c2)ccn1 [Example 13a],< 100 nM
11,"CN1CCN(Cc2cc(Nc3nc4cc(Oc5ccnc6ccccc56)cc(Cl)c4o3)ccc2Cl)CC1 [Example 257, [4-Chloro-3-(4-methyl-piperazin-1-ylmethyl)-phenyl]-[7-chloro-5-(quinolin-4-yloxy)-benzoxazol-2-yl]-amine]",< 100 nM
12,"COc1cc2ncnc(Oc3ccc4[nH]c(Nc5ccc(Cl)c(OCC6CCN(C)CC6)c5)nc4c3)c2cc1OC [Example 238, [4-Chloro-3-(1-methylpiperidin-4-ylmethoxy)-phenyl]-[5-(6,7-dimethoxyquinazolin-4-yloxy)-1H-benzimidazol-2-yl]-amine]",< 100 nM
13,"CNC(=O)c1cc(Oc2ccc3oc(Nc4ccc(Cl)c(CN5CCN(CCN(C)C)CC5)c4)nc3c2)ccn1 [Example 246, 4-[2-{4-Chloro-3-[4-(2-dimethylamino-ethyl)-piperazin-1-ylmethyl]-phenylamino}-benzoxazol-5-yloxy)-pyridine-2-carboxylic acid methylamide]",< 100 nM
14,"COc1cc2nccc(Oc3ccc4[nH]c(Nc5ccc(Cl)c(CN6CCN(C)CC6)c5)nc4c3)c2cc1OC [Example 236, [4-Chloro-3-(4-methylpiperazin-1-ylmethyl)-phenyl]-[5-(6,7-dimethoxyquinolin-4-yloxy)-1H-benzimidazol-2-yl]-amine]",< 100 nM
15,"COc1cc2ncnc(Oc3ccc4oc(Nc5ccc(Cl)c(OC[C@@H]6CCCN6C)c5)nc4c3)c2cc1OC [Example 263, S-[4-Chloro-3-(1-methyl-pyrrolidin-2-ylmethoxy)-phenyl]-[5-(6,7-dimethoxy-quinazolin-4-yloxy)-benzoxazol-2-yl]-amine]",< 100 nM
16,CNC(=O)c1cc(Oc2ccc3oc(Nc4ccc(Br)cc4)nc3c2)ccn1 [Example 38],< 100 nM
17,"COc1cc2nccc(Oc3ccc4oc(Nc5ccc(Cl)c(OC[C@@H]6CCCN6C)c5)nc4c3)c2cc1OC [Example 259, S-[4-Chloro-3-(1-methylpyrrolidin-2-ylmethoxy)-phenyl]-[5-(6,7-dimethoxyquinolin-4-yloxy)-benzoxazol-2-yl]-amine]",< 100 nM
18,"CN1CCC[C@H]1COc1cc(Nc2nc3cc(Oc4ccnc5[nH]ccc45)ccc3o2)ccc1Cl [Example 47, N-(4-Chloro-3-(((2S)-1-methyl-2-pyrrolidinyl)methoxy)phenyl)-5-(1H-pyrrolo[2,3-b]pyridin-4-yloxy)-1,3-benzoxazol-2-amine]",< 100 nM
19,"CNC(=O)c1cc(Oc2ccc3oc(Nc4ccc(Cl)c(CN5CCN(C)CC5)c4)nc3c2)ccn1 [Example 32, 4-{2-[4-Chloro-3-(4-methyl-piperazin-1-ylmethyl)-phenylamino]-benzoxazol-5-yloxy}-pyridine-2-carboxylic acid methylamide]",< 100 nM
20,"CNC(=O)c1cc(Oc2cc(Cl)c3oc(Nc4ccc(Cl)c(CN5CCN(C)CC5)c4)nc3c2)ccn1 [Example 245, 4-{7-Chloro-2-[4-chloro-3-(4-methyl-piperazin-1-ylmethyl)-phenylamino]-benzoxazol-5-yloxy}-pyridine-2-carboxylic acid methyl amide]",< 100 nM
21,"CN1CCN(Cc2cc(Nc3nc4cc(Oc5ccnc6ccccc56)ccc4[nH]3)ccc2Cl)CC1 [Example 28, [4-Chloro-3-(4-methyl-piperazin-1-ylmethyl)-phenyl]-[5-(quinolin-4-yloxy)-1H-benzimidazol-2-yl]-amine]",< 100 nM
22,"COc1cc2nccc(Oc3ccc4oc(Nc5ccc(Cl)c(CN6CCN(C)CC6)c5)nc4c3)c2cc1OC [Example 45, 5-((6,7-bis(Methoxy)-4-quinolinyl)oxy)-N-(4-chloro-3-((4-methyl-1-piperazinyl)methyl)phenyl)-1,3-benzoxazol-2-amine]",< 100 nM
23,"CNC(=O)c1cc(Oc2ccc3oc(Nc4ccc(Cl)c(OC[C@@H]5CCCN5C(C)C)c4)nc3c2)ccn1 [Example 252, 4-{2-[4-Chloro-3-((2S)-1-isopropyl-pyrrolidin-2-ylmethoxy)-phenylamino]-benzooxazol-5-yloxy}-pyridine-2-carboxilic acid methylamide]",< 100 nM
24,"CN1CCN(Cc2cc(Nc3nc4cc(Oc5ccnc6[nH]ccc56)ccc4o3)ccc2Cl)CC1 [Example 46, N-(4-Chloro-3-((4-methyl-1-piperazinyl)methyl)phenyl)-5-(1H-pyrrolo[2,3-b]pyridin-4-yloxy)-1,3-benzoxazol-2-amine]",< 100 nM
25,CNC(=O)c1cc(Oc2ccc3[nH]c(Nc4ccc(C(F)(F)F)c(OCC5CCCN5C)c4)nc3c2)ccn1 (stereo not shown) [Example 13c],< 100 nM
26,"CCN(CC)CCOc1cc(Nc2nc3cc(Oc4ccnc(C(=O)NC)c4)ccc3o2)ccc1Cl [Example 248, 4-{2-[4-Chloro-3-(2-diethylamino-ethoxy)-phenylamino]-benzoxazol-5-yloxy}-pyridine-2-carboxylic acid methylamine]",< 100 nM
27,"CNC(=O)c1cc(Oc2ccc3oc(Nc4ccc(Cl)c(OCC5CCN(C(C)C)CC5)c4)nc3c2)ccn1 [Example 244, 4-{2-[4-Chloro-3-(1-isopropylpiperidin-4-ylmethoxy)-phenylamino]-benzoxazol-5-yloxy}-pyridine-2-carboxylic acid methyl amide]",< 100 nM
28,"CNC(=O)c1cc(Oc2ccc3oc(Nc4ccc(Cl)c(OCC5CCNCC5)c4)nc3c2)ccn1 [Example 243, 4-{2-[4-Chloro-3-(piperidin-4-ylmethoxy)-phenylamino]-benzoxazol-5-yloxy}-pyridine-2-carboxylic acid methylamide]",< 100 nM
